One assay has as its system MOLT-4. Kind of assay: NCI COMPARE panel (SRB growth inhibition), MOLT-4. Type of assay: cell-based. The settings on record: Homo sapiens; Leukemia, MOLT-4, 48 h. As for the experimental part:
(§1) The human tumor cell lines of the cancer screening panel are grown in RPMI 1640 medium containing 5% fetal bovine serum and 2 mM L-glutamine. For a typical screening experiment, cells are inoculated into 96 well microtiter plates in 100 µL at plating densities ranging from 5,000 to 40,000 cells/well depending on the doubling time of individual cell lines. After cell inoculation, the microtiter plates are incubated at 37° C., 5% CO2, 95% air and 100% relative humidity for 24 h prior to addition of experimental drugs.
(§2) After 24 h, two plates of each cell line are fixed in situ with TCA, to represent a measurement of the cell population for each cell line at the time of drug addition (Tz). Experimental drugs are solubilized in dimethyl sulfoxide at 400-fold the desired final maximum test concentration and stored frozen prior to use. […]
(§3) Following drug addition, the plates are incubated for an additional 48 h at 37° C., 5 % CO2, 95% air, and 100% relative humidity. […] Bound stain is subsequently solubilized with 10 mM trizma base, and the absorbance is read on an automated plate reader at a wavelength of 515 nm. […] Using the seven absorbance measurements [time zero, (Tz), control growth, (C), and test growth in the presence of drug at the five concentration levels (Ti)], the percentage growth is calculated at each of the drug concentrations levels. Percentage growth inhibition is calculated as: […]

The test system of a further assay is OVCAR-3. Description: NCI COMPARE panel (SRB growth inhibition), OVCAR-3. As to conditions: Homo sapiens; Ovarian Cancer, OVCAR-3, 48 h. Type of assay: cell-based. As for the experimental part: as §1, §2, §3
The next assay relates to SNB-19. Description: NCI COMPARE panel (SRB growth inhibition), SNB-19. Type of assay: cell-based. The settings on record: Homo sapiens; CNS Cancer, SNB-19, 48 h. As for the experimental part: as §1, §2, §3
The next assay concerns the target EGFR (Homo sapiens, UniProt P00533). Description: Z'-LYTE / Adapta biochemical kinase assay, EGFR. As to conditions: for inhibition at 0.1 µM: concentration of 100 nM/liter, read-out: Percent Inhibition of target enzymes, EGFR. From the text: The Z′-LYTE® biochemical assay employs a fluorescence-based, coupled-enzyme format and is based on the differential sensitivity of phosphorylated and non-phosphorylated peptides to proteolytic cleavage. The peptide substrate is labeled with two fluorophores—one at each end—that make up a FRET pair. In the primary reaction, the kinase transfers the gamma-phosphate of ATP to a single tyrosine, serine or threonine residue in a synthetic FRET-peptide. In the secondary reaction, a site-specific protease recognizes and cleaves non-phosphorylated FRET-peptides. Phosphorylation of FRET-peptides suppresses cleavage by the Development Reagent. Cleavage disrupts FRET between the donor (i.e., coumarin) and acceptor (i.e., fluorescein) fluorophores on the FRET-peptide, whereas uncleaved, phosphorylated FRET-peptides maintain FRET. A ratiometric method, which calculates the ratio (the Emission Ratio) of donor emission to acceptor emission after excitation of the donor fluorophore at 400 nm, is used to quantitate reaction progress.
A significant benefit of this ratiometric method for quantitating reaction progress is the elimination of well-to-well variations in FRET-peptide concentration and signal intensities. As a result, the assay yields very high Z′-factor values (>0.7) at a low percent phosphorylation.
Both cleaved and uncleaved FRET-peptides contribute to the fluorescence signals and therefore to the Emission Ratio. The extent of phosphorylation of the FRET-peptide can be calculated from the Emission Ratio. The Emission Ratio will remain low if the FRET-peptide is phosphorylated (i.e., no kinase inhibition) and will be high if the FRET-peptide is non-phosphorylated (i.e., kinase inhibition).
Enzyme: The ADAPTA universal kinase assay is a homogenous, fluorescent based immunoassay for the detection of ADP. In contrast to ATP depletion assays, the ADAPTA assay is extremely sensitive to ADP formation such that a majority of the signal change occurs in the first 10-20% conversion of ATP to ADP. This makes the ADAPTA universal kinase assay ideally suited for use with low activity kinases.
The principle of the ADAPTA universal kinase assay is outlined below. The assay itself can be divided into two phases: a kinase reaction phase, and an ADP detection phase. In the kinase reaction phase, all components required for the kinase reaction are added to the well, and the reaction is allowed to incubate for 60 minutes. After the reaction, a detection solution consisting of a europium labeled anti-ADP antibody, an Alexa Fluor® 647 labeled ADP tracer, and EDTA (to stop the kinase reaction) is added to the assay well. ADP formed by the kinase reaction (in the absence of an inhibitor) will displace the Alexa Fluor® 647 labeled ADP tracer from the antibody, resulting in a decrease in the TR-FRET signal. In the presence of an inhibitor, the amount of ADP formed by the kinase reaction is reduced, and the resulting intact antibody-tracer interaction results in a high TR-FRET signal.
Test Compounds: The Test Compounds are screened in 1% DMSO (final) in the well. For 10 point titrations, 3-fold serial dilutions are conducted from the starting concentration of the customer’s choosing.
Peptide/Kinase Mixtures: All Peptide/Kinase Mixtures are diluted to a 2X working concentration in the appropriate Kinase Buffer.
ATP Solution: All ATP Solutions are diluted to a 4X working concentration in Kinase Buffer (50 mM HEPES pH 7.5, 0.01% BRIJ-35, 10 mM MgCl2,1 mM EGTA). ATP Km apparent is previously determined using a Z′-LYTE® assay.
Development Reagent Solution: The Development Reagent is diluted in Development Buffer.
Assay Protocol: Bar-coded Corning, low volume NBS, black 384-wellplate (Corning Cat. #4514) 1. 2.5 µL - 4X Test Compound or 100 nL 100X plus 2.4 µL kinase buffer. 2. 5 µL - 2X Peptide/Kinase Mixture. 3. 2.5 µL - 4X ATP Solution. 4. 30-second plate shake. 5. 60-minute Kinase Reaction incubation at room temperature. 6. 5 µL - Development Reagent Solution. 7. […]

EGFR, sequence (P00533 25-1210): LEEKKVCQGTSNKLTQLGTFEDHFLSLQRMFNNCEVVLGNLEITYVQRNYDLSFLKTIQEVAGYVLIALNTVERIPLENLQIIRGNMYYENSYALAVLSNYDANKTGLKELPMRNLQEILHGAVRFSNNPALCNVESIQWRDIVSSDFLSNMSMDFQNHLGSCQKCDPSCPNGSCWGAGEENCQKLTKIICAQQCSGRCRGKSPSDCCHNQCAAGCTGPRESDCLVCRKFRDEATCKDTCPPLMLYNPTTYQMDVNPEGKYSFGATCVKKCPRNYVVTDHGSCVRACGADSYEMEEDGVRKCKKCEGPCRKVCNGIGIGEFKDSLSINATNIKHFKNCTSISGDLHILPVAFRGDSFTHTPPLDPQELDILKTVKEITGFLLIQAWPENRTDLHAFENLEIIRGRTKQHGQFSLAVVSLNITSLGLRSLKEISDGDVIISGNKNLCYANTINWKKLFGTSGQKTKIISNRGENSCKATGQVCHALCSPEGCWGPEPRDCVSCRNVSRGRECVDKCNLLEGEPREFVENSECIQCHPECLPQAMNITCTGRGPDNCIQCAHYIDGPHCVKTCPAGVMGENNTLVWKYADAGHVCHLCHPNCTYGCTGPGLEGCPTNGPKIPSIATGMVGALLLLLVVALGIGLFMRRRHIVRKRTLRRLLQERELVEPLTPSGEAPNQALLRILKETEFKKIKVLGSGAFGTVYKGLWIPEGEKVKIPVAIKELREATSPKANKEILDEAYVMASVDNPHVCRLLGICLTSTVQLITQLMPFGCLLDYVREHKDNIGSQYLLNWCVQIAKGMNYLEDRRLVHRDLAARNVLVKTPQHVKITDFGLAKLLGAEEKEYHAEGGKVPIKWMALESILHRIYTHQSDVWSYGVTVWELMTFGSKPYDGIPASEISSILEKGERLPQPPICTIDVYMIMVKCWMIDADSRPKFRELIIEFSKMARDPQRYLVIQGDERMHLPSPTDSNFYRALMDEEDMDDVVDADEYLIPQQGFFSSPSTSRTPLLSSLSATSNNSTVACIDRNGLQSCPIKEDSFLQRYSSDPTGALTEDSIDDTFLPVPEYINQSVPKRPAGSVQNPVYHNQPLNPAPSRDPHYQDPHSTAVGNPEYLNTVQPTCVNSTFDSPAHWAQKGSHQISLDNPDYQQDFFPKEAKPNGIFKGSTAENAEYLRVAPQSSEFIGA

A word on the GI50: it is the concentration at which growth is held to half of that of the control. What is called inhibition is the share of the control response that was lost under treatment. Regarding `CS(=O)(=O)Nc1cc(-c2ccc3ncc(C#N)c(Nc4cccc(Cl)c4F)c3c2)cnc1Cl` [Compound 10, N-[2-chloro-5-[4-(3-chloro-2-fluoro-anilino)-3-cyano-6-quinolyl]-3-pyridyl]methanesulfonamide], the GI50 in the assay with MOLT-4 was 75 to 125 nM; in the assay on OVCAR-3, greater than 250 nM; in the assay on SNB-19, 125 to 250 nM. Further, at EGFR, the inhibition at 0.1 µM is greater than 90%.

Broadly, the IC50 is the concentration needed to halve the response being measured. A higher IC50 goes with weaker potency in that assay. For the molecule `CS(=O)(=O)Nc1cc(-c2ccc3ncnc(Nc4cccc(Cl)c4F)c3c2)cnc1Cl` [Compound 6, N-[2-chloro-5-[4-(3-chloro-2-fluoro-anilino)quinazolin-6-yl]-3-pyridyl] methanesulfonamide], the values for the 50% growth inhibitory concentration (GI50) with MOLT-4, in the assay with OVCAR-3 and in the assay on SNB-19 were 125 to 250 nM, 75 to 125 nM and 125 to 250 nM, respectively. The same molecule displayed a concentration for half-maximal inhibition (IC50) against EGFR (EGFR) of no more than 2 nM. Also, the inhibition at 0.1 µM at EGFR was greater than 90%.
